Experimental data as given in patent publication US20250326748A1, “COMPOUNDS AND METHODS FOR MODULATING SPLICING” (REMIX THERAPEUTICS INC., priority 2022, published 2025).
Read-outs that look alike come from different tables or passages of the source.

Legend:
MYB mRNA = test: Splicing RT-qPCR assay, MYB canonical (CJ) and alternative (AJ) junction mRNA; format: cell-based, human; details: Homo sapiens; for IC50: canonical junction mRNA; for AC50: alternative junction mRNA, read-out: MYB AJ (AC50, increase in AJ mRNA)
Method: (§1) Compounds described herein were used to modulate RNA transcript abundance in cells. The expression of a target mRNA was measured by detecting the formation of an exon-exon junction in the canonical transcript (CJ). A compound mediated exon-inclusion event was detected by observing an increase in formation of a new junction with an alternative exon (AJ). Real-time qPCR assays were used to detect these splicing switches and interrogate the potency of various compounds towards different target genes. A high-throughput real time quantitative PCR (RT-qPCR) assay was developed to measure these two isoforms of the mRNA (CJ and AJ) for exemplary genes, such as HTT, SMN2, and MYB, together with a control housekeeping gene, GAPDH or GUSB or PPIA, used for normalization. Briefly, the A673 or K562 cell line was treated with various compounds described herein (e.g., compounds of Formula (D). After treatment, the levels of the HTT, MYB, or SMN2 mRNA targets were determined from each sample of cell lysate by cDNA synthesis followed by qPCR.
(§2) • Cells-to-CT 1-step kit: ThermoFisher A25602, Cells-to-CT lysis reagent: ThermoFisher 4391851C, TaqMan™ Fast Virus 1-Step Master Mix: ThermoFisher 4444436 • GAPDH: VIC-PL, ThermoFisher 4326317E (Assay: Hs99999905_m1)—used for K562/suspension cell lines • GUSB: VIC-PL, ThermoFisher 4326320E (Assay: Hs99999908_m1)—used for K562/suspension cell lines • PPIA: VIC-PL, ThermoFisher 4326316E (Assay: Hs99999904_m1)—used for A673/adherent cell lines
(§3) The A673 cell line was cultured in DMEM with 10% FBS. Cells were diluted with full growth media and plated in a 96-well plate (15,000 cells in 100 ul media per well). The plate was incubated at 37° C. with 5% CO2 for 24 hours to allow cells to adhere. An 11-point 3-fold serial dilution of the compounds was made in DMSO then diluted in media in an intermediate plate. Compounds were transferred from the intermediate plate to the cell plate with the top dose at a final concentration of 10 uM in the well. Final DMSO concentration was kept at or below 0.25%. The cell plate was returned to the incubator at 37° C. with 5% CO2 for an additional 24 hours.
(§4) The K562 cell line was cultured in IMDM with 10% FBS. For K562, cells were diluted with full growth media and plated in either a 96-well plate (50,000 cells in 50 uL media per well) or a 384-well plate (8,000-40,000 cells in 45 uL media per well). An 11-point 3-fold serial dilution of the compounds were made in DMSO then diluted in media in an intermediate plate. Compound was transferred from the intermediate plate to the cell plate with the top dose at a final concentration of 10 uM in the well. Final DMSO concentration was kept at or below 0.25%. Final volume was 100 uL for 96-well plate and 50 uL for 384-well plate. The cell plate was then placed in an incubator at 37° C. with 5% CO2 for 24 hours.
(§5) The cells were then gently washed with 50 uL-100 uL cold PBS before proceeding to addition of lysis buffer. 30 uL-50 μL of room temperature lysis buffer with DNAse I (and optionally RNAsin) was added to each well. Cells were shaken/mixed thoroughly at room temperature for 5-10 minutes for lysis to take place and then 3 uL-5 μL of room temperature stop solution was added and wells were shaken/mixed again. After 2-5 minutes, the cell lysate plate was transferred to ice for RT-qPCR reaction setup. The lysates could also be frozen at −80° C. for later use.
(§6) In some cases, a direct lysis buffer was used. An appropriate volume of 3× lysis buffer (10 mM Tris, 150 mM NaCl, 1.5%-2.5% Igepal and 0.1-1 U/uL RNAsin, pH 7.4) was directly added to either K562 or A673 cells in media and mixed by pipetting 3 times. The plates were then incubated at room temperature with shaking/rocking for 20-50 minutes to allow for lysis to take place. After this time, the cell lysate plate was transferred to ice to set up for the RT-qPCR reactions. The lysates could also be frozen at −80° C. for later use. […]

Target C mRNA = test: Splicing RT-qPCR panel, Target C canonical junction (CJ) mRNA; format: cell-based, human; details: Homo sapiens, read-out: Target C CJ (decrease in CJ mRNA levels, IC50)
Method: as §1, §3, §4, §5
In some cases, a direct lysis buffer was used. An appropriate volume of 3× lysis buffer (10 mM Tris, 150 mM NaCl, 1.5%-2.5% Igepal and 0.1-1 U/uL RNAsin, pH 7.4) was directly added to either K562 or A673 cells in media and mixed by pipetting 3 times. The plates were then incubated at room temperature with shaking/rocking for 20-50 minutes to allow for lysis to take place. After this time, the cell lysate plate was transferred to ice to set up for the RT-qPCR reactions. The lysates could also be frozen at −80° C. for later use.
To set up 10 uL RT-qPCR reactions, cell lysates were transferred to 384-well qPCR plates containing the master mix according to the table below. The plates were sealed, gently vortexed, and spun down before the run. The volumes were adjusted accordingly in some instances where the reaction was carried in 20 μL. The table below summarizes the components of the RT-qPCR reactions:
The RT-qPCR reaction was performed using a QuantStudio (ThermoFisher) under the following fast cycling conditions. […]

HTT mRNA = test: Splicing RT-qPCR assay, HTT canonical (CJ) and alternative (AJ) junction mRNA; format: cell-based, human; details: Homo sapiens; for IC50: canonical junction mRNA; for AC50: alternative junction mRNA, read-out: HTT AJ (AC50, increase in AJ mRNA)
Method: as §1, §2, §3, §4, §5, §6

K562 cells = test: Cell viability, Cell Titer Glo 2.0 assay, K562; details: 72 hours
Method: Compounds described herein were screened for toxicity in K562 (human chronic myelogenous leukemia) and SH-SY5Y (human neuroblastoma) cells using a Cell Titer Glo 2.0 assay.
• Promega CellTiter-Glo® 2.0 Cell Viability Assay (cat #G9241) • Corning 384-well TC-treated microplates (cat #3570)
Cells were plated at 500 cells/well (K562 cells) in 45 μL of IMDM supplemented with 10% FBS in a 384-well opaque plate. Wells containing only medium were used as a blank control. Test compounds (e.g., compounds of Formula (I) or (II)) were first serially diluted in DMSO then diluted 1:100 with IMDM+10% FBS. The final concentration of DMSO was 0.1% in each well. The cells were incubated for 72 hours at 37° C. and 5% CO2 before assaying with Cell Titer Glo 2.0 reagent.

[1] = qPCR panel, read-out: MYB CJ (decrease in CJ mRNA levels, IC50)
[2] = RT-qPCR, A673 or K562 cells, 24 hours treatment
[3] = RT-qPCR, A673 or K562 cells, 24 hours treatment, read-out: MYB CJ (IC50, decrease in CJ mRNA)
[4] = 24 h, RT-qPCR, A673 or K562 cells, 24 hours treatment, read-out: HTT CJ (IC50, decrease in CJ mRNA)
[5] = qPCR panel, read-out: HTT CJ (decrease in CJ mRNA levels, IC50)

Compound | IC50 (MYB mRNA; [1]) | IC50 (MYB mRNA; [3]) | IC50 (Target C mRNA) | IC50 (HTT mRNA; [4]) | IC50 (HTT mRNA; [5]) | AC50 (MYB mRNA; [2]) | AC50 (HTT mRNA; [2]) | Effect on Cell Viability, K562 (K562 cells)
Cc1c(O)c(-c2cc(C3CC3)c3cc(N4C[C@@H](C)N[C@@H](C)C4)cnc3n2)cc2cn(C)nc12 [Compound 374, 5-{4-cyclopropyl-6-[(3R,5S)-3,5-dimethylpiperazin-1-yl]-1,8-naphthyridin-2-yl}-2,7-dimethylindazol-6-ol] | 100 to 1000 nM | 100 to 1000 nM | > 10000 nM | 1000 to 10000 nM | 1000 to 10000 nM | 100 to 1000 nM | 1000 to 10000 nM | C (1000-9999 nM)
Cc1c(O)c(-c2cc(Cl)c3cc(N4C[C@@H]5CCCN(C)[C@@H]5C4)cnc3n2)cc2cn(C)nc12 [Compound 375] | 100 to 1000 nM | 100 to 1000 nM | > 10000 nM | > 10000 nM | > 10000 nM | 100 to 1000 nM | > 10000 nM | B (100-1000 nM)
CN1CCC[C@H]2CN(c3cnc4nc(-c5cc(F)c6nn(C)cc6c5)cc(Cl)c4c3)C[C@H]21 [Compound 376, 6-[(4aS,7aS)-1-methyl-hexahydro-2H-pyrrolo[3,4-b]pyridin-6-yl]-4-chloro-2-(7-fluoro-2-methylindazol-5-yl)-1,8-naphthyridine] | 1000 to 10000 nM | 1000 to 10000 nM | > 10000 nM | > 10000 nM | > 10000 nM | 1000 to 10000 nM | > 10000 nM | C (1000-9999 nM)
Cc1c(O)c(-c2cc(C3CC3)c3cc(N4C[C@H](C)N[C@@H](C)C4)cnc3n2)cc2cn(C)nc12 [Compound 377, 5-{4-cyclopropyl-6-[(3S,5S)-3,5-dimethylpiperazin-1-yl]-1,8-naphthyridin-2-yl}-2,7-dimethylindazol-6-ol] | < 100 nM | < 100 nM | 1000 to 10000 nM | 100 to 1000 nM | 100 to 1000 nM | < 100 nM | 100 to 1000 nM | B (100-1000 nM)
Cn1cc2cc(-c3cc(Cl)c4cc(N5CCNC6(CC6)C5)cnc4n3)cc(F)c2n1 [Compound 382] | 100 to 1000 nM | 100 to 1000 nM | > 10000 nM | 1000 to 10000 nM | 1000 to 10000 nM | 100 to 1000 nM | > 10000 nM | C (1000-9999 nM)
Cc1cn2nc(-c3cc(Cl)c4cc(N5CCNC6(CC6)C5)cnc4n3)cc(C)c2n1 [Compound 383] | 100 to 1000 nM | 100 to 1000 nM | 1000 to 10000 nM | 1000 to 10000 nM | 1000 to 10000 nM | 100 to 1000 nM | 1000 to 10000 nM | C (1000-9999 nM)
Cn1cc2cc(-c3cc(Cl)c4cc(N5CC[C@@H](N6CCC6)C5)cnc4n3)c(O)cc2n1 [Compound 386] | 100 to 1000 nM | 100 to 1000 nM | > 10000 nM | 1000 to 10000 nM | 1000 to 10000 nM | 100 to 1000 nM | 1000 to 10000 nM | B (100-1000 nM)

Further lines, with some results ahead:

IC50 (MYB mRNA; [1]) | IC50 (MYB mRNA; [3]) | IC50 (Target C mRNA) | IC50 (HTT mRNA; [4]) | IC50 (HTT mRNA; [5]) | Compound | AC50 (MYB mRNA; [2]) | AC50 (HTT mRNA; [2]) | Effect on Cell Viability, K562 (K562 cells)
< 100 nM | < 100 nM | 100 to 1000 nM | < 100 nM | < 100 nM | Cc1c(O)c(-c2cc(Cl)c3cc(N4C[C@H](C)N[C@@H](C)C4)cnc3n2)cc2cn(C)nc12 [Compound 232, 5-{4-chloro-6-[(3S,5S)-3,5-dimethylpiperazin-1-yl]-1,8-naphthyridin-2-yl}-2,7-dimethylindazol-6-ol] | < 100 nM | < 100 nM | A (<100 nM)
100 to 1000 nM | 100 to 1000 nM | > 10000 nM | 1000 to 10000 nM | 1000 to 10000 nM | C[C@@H]1CN(c2cnc3nc(-c4cc5cn(C)nc5cc4O)cc(Cl)c3c2)CC2(CC2)N1 [Compound 378] | 100 to 1000 nM | > 10000 nM | B (100-1000 nM)
< 100 nM | < 100 nM | 1000 to 10000 nM | 100 to 1000 nM | 100 to 1000 nM | Cc1c(O)c(-c2cc(C#N)c3cc(N4C[C@H](C)N[C@@H](C)C4)cnc3n2)cc2cn(C)nc12 [Compound 384, 6-[(3S,5S)-3,5-dimethylpiperazin-1-yl]-2-(6-hydroxy-2,7-dimethylindazol-5-yl)-1,8-naphthyridine-4-carbonitrile] | < 100 nM | 100 to 1000 nM | A (<100 nM)
< 100 nM | < 100 nM | 1000 to 10000 nM | > 10000 nM | > 10000 nM | C[C@H]1CN(c2cnc3nc(-c4cc(F)c5nn(C)cc5c4)ccc3c2Cl)CCN1 [Compound 385, 5-chloro-2-(7-fluoro-2-methylindazol-5-yl)-6-[(3S)-3-methylpiperazin-1-yl]-1,8-naphthyridine] | 100 to 1000 nM | 1000 to 10000 nM | A (<100 nM)
